In patent US8815891B2, “Tricyclic derivative or pharmaceutically acceptable salts thereof, preparation method thereof, and pharmaceutical composition containing the same” (Je Il Pharmaceutical Co., Ltd., priority 2008, dated 2014) one finds IC50 data, which are given here for 27 compounds.

For assay [1], the target named is PARP-1 enzyme (Homo sapiens (Human), UniProt P09874). The assay can be described thus: Poly(ADP-ribose)polymerase [PARP-1] enzyme inhibitory activity (Trevigen PARP Assay kit). It counts as biochemical. The settings on record: read-out: PARP-1 Inhibitory activity IC50. The procedure: The activity of the compounds according to the present invention to inhibit the PARP-1 enzyme was examined using a PARP Assay kit (4671-096-K) purchased from Trevigen. The assay was performed following a modified previously reported method by Lee et al [Methods Find, Exp. Clin. Pharmacol., 27, 617-622, 2005].
PARP-1 enzyme (Homo sapiens (Human), UniProt P09874), sequence (P09874 whole entry): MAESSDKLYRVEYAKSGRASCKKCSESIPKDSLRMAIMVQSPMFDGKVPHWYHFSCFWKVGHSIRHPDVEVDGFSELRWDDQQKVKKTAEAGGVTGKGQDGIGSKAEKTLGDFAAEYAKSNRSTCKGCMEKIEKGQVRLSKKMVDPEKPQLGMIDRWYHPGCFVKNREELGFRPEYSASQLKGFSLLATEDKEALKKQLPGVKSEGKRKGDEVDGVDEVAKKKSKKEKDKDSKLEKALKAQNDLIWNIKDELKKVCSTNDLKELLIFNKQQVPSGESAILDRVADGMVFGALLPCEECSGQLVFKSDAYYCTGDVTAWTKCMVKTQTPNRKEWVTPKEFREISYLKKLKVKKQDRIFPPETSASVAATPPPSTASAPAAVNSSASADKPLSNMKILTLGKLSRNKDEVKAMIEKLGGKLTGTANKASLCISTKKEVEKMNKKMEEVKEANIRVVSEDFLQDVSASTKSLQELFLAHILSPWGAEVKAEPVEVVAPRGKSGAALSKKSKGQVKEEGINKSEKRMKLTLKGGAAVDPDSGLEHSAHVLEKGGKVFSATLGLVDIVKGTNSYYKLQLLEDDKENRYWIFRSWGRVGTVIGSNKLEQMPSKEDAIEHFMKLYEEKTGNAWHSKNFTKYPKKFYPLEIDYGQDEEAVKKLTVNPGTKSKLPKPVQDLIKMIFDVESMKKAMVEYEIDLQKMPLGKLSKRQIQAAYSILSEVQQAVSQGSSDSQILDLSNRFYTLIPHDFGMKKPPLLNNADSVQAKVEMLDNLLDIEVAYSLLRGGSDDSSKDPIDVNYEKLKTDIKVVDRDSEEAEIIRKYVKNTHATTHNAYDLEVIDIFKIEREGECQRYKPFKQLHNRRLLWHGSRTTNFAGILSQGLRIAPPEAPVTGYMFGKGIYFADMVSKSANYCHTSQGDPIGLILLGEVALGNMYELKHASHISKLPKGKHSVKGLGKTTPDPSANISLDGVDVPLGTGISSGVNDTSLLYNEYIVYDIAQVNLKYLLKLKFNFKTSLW
Histone was coated on 384-well plate, which is a small volume PS plate (784101) of Greiner Bio-One, and left at 25° C. for 2 hours. After that, the plate was rinsed four times with PBS (7.5 mM Na2HPO4, 2.5 mM NaH2PO4, 145 mM NaCl, pH 7.4), and in order to prevent non-specific reaction, the Strep-diluent (provided from kit of Trevigen) was added and left at 25° C. for one hour. After one hour, the plate was again rinsed with PBS four times, and the compounds of the Examples in various concentrations were put into reactant containing PARP-1 enzyme (0.12 unit/well), 2×PARP cocktail (1.95 mM NAD^+, 50 uM biotinylated NAD^+, and activated DNA in 50 mM Tris pH 8.0, 25 mM MgCl2) and allowed to react at 25° C. for 30 minutes. After 30 minutes, each well was rinsed with PBS four times, and in order to measure the amount of rybosylation by the PARP enzyme, strepavidin-linked peroxidase (Strep-HRP, 1:1000 diluted) was added and allowed to react at 37° C. for 30 minutes. The plate was rinsed with PBS four times, and TACS-Sapphire substrate was put and allowed to react at 25° C. for 10 minutes so that color reaction occurred. Finally, the reaction was terminated by the addition of 0.2 N HCl. The amount of histone ribosylation formed by PARP-1 enzyme was quantified at 450 nm using Wallac EnVision™ (PerkinElmer Oy, Turku, Finland).

Assay [2] has as its target PARP-1 enzyme (Cricetulus griseus (Chinese hamster) (Cricetulus barabensis griseus), UniProt Q9R152). The assay can be described thus: Intracellular PARP inhibitory activity (NAD(P)H released by MMS-treated CHO-K1 cells). The assay is classed as cell-based. As for the experimental part: In order to verify the ability of the compounds of the present invention to inhibit the PARP-1 enzyme activity, the amount of NAD(P)H accumulated on cell culture medium was measured.
The Chinese hamster ovary cells (CHO-K1) were cultured in RPMI1640 culture medium containing 10% fetal bovine serum (FBS). The cultured CHO-K1 cells were seeded into 96 well plate by 2.9×10^3 cells/well, and cultured for 16 hours under culture condition of 37° C., 5% CO2. After the culture, the cells were treated with the compounds of the Examples at varying concentrations, and cultured at 37° C. for 2 hours. […] The amount of […] released to the culture medium 3, 4, 5 hours after the treatment with MMS was quantified at 450 nm using Wallac EnVision™ (PerkinElmer Oy, Turku, Finland). The transference numbers of the compounds at varying concentrations according to the present invention are the average values obtained from four wells, and the results were calculated using regression analysis.
The Chinese hamster ovary cells (CHO-K1) were treated with the compounds at varying concentration according to the present invention, and the amount of NAD(P)H released into the culture medium 4 hours after the MMS treatment was quantified.

[3] abbreviates: PARP-1 enzyme, histone ribosylation, 450 nm.

Molecules are shown by their SMILES. Counter-ions that a name gives are not always drawn. Like-named read-outs stand apart in the source and are kept apart here.

PARP-1 enzyme (Cricetulus griseus (Chinese hamster) (Cricetulus barabensis griseus), UniProt Q9R152), sequence (Q9R152 whole entry): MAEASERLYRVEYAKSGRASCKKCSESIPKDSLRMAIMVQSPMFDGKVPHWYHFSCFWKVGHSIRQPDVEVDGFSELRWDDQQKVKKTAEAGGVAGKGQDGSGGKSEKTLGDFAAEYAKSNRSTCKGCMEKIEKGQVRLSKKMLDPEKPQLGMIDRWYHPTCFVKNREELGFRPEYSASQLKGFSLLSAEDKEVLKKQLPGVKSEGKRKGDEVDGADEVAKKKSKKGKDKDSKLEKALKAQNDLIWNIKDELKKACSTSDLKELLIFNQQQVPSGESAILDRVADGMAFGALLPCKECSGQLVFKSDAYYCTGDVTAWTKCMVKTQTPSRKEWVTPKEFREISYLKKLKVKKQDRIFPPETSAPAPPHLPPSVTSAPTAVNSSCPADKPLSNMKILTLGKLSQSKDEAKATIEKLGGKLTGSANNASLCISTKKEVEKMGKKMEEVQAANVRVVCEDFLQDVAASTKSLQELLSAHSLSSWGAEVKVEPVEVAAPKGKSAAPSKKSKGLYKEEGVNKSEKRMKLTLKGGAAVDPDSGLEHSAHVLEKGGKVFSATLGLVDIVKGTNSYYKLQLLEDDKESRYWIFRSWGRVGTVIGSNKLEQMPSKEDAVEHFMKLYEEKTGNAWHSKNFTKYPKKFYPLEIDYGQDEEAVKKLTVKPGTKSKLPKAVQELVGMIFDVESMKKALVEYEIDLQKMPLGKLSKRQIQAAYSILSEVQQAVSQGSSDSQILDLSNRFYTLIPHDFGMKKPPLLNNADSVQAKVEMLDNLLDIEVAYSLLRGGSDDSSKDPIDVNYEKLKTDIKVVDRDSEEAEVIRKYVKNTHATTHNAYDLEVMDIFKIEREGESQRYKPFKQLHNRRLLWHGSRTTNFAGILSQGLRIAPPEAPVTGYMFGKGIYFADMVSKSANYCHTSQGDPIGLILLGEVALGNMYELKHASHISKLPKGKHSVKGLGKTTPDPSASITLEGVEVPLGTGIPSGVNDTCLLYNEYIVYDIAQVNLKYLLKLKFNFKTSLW

In the case of `O=c1[nH]c2ccc(OCCN3CCCCC3)cc2c2c1CCCN2` [Example 17, 9-[2-(Piperidine-1yl)ethoxy]-1,2,3,4-tetrahydrobenzo[h][1,6]naphthyridine-5(6H)-one dihydrochloride], the concentration for half-maximal inhibition (IC50) on PARP-1 enzyme [1] (setting [3]) is less than 1000 nM; on PARP-1 enzyme [1], 460 nM; on PARP-1 enzyme [2], 1630 nM.

As to `COCCOc1ccc2[nH]c(=O)c3c(c2c1)NCCC3` [Example 18, 9-(2-Methoxyethoxy)-1,2,3,4-tetrahydrobenzo[h][1,6]naphthyridine-5(6H)-one hydrochloride], the figures for the IC50 on PARP-1 enzyme [1] (setting [3]) and at PARP-1 enzyme [2] were 1520 nM and 3710 nM, respectively.

With `CCOc1ccc2[nH]c(=O)c3c(c2c1)NCCC3` [Example 20, 9-Ethoxy-1,2,3,4-tetrahydrobenzo[h][1,6]naphthyridine-5(6H)-one hydrochloride], the IC50 was 1540 nM at PARP-1 enzyme [1] (setting [3]) and 1300 nM on PARP-1 enzyme [2].

For `CN(C)CCc1ccc2c3c(c(=O)[nH]c2c1)CCCN3` [Example 32, 8-[2-(Dimethylamino)ethyl]-1,2,3,4-tetrahydrobenzo[h][1,6]naphthyridine-5(6H)-one dihydrochloride], the IC50 on PARP-1 enzyme [1] (setting [3]) is less than 1000 nM; on PARP-1 enzyme [1], 230 nM; on PARP-1 enzyme [2], 3160 nM.

Regarding `CN(C)c1ccc2c3c(c(=O)[nH]c2c1)CCCN3` [Example 37, 8-(Dimethylamino)-1,2,3,4-tetrahydrobenzo[h][1,6]naphthyridine-5(6H)-one hydrochloride], the IC50 on PARP-1 enzyme [1] (setting [3]) was greater than 4000 nM; on PARP-1 enzyme [2] (CHO-K1 cells, NAD(P)H released 4 hours after MMS treatment, read-out: PARP-1 Inhibitory activity IC50), 4860 nM.

Turning to `CC(c1ccc2c3c(c(=O)[nH]c2c1)CCCN3)N(C)C` (stereo not shown) [Example 38, 8-[1-(Dimethylamino)ethyl]-1,2,3,4-tetrahydrobenzo[h][1,6]naphthyridine-5(6H)-one dihydrochloride], the figures for the IC50 on PARP-1 enzyme [1] (setting [3]), at PARP-1 enzyme [1] and at PARP-1 enzyme [2] were less than 1000 nM, 50 nM and 140 nM, respectively.

As for `CN(C)Cc1ccc2c3c(c(=O)[nH]c2c1)CCCN3` [Example 41, 8-[(Dimethylamino)methyl]-1,2,3,4-tetrahydrobenzo[h][1,6]naphthyridine-5(6H)-one dihydrochloride], the IC50 was determined as 40 nM on PARP-1 enzyme [1] and 50 nM at PARP-1 enzyme [2].

For `CCNCc1ccc2c3c(c(=O)[nH]c2c1)CCCN3` [Example 43, 8-[(Ethylamino)methyl]-1,2,3,4-tetrahydrobenzo[h][1,6]naphthyridine-5(6H)-one dihydrochloride], the figures for the IC50 at PARP-1 enzyme [1] and on PARP-1 enzyme [2] were 160 nM and 1770 nM, respectively.

On to `O=c1[nH]c2cc(CN3CCCC3)ccc2c2c1CCCN2` [Example 44, 8-(Pyrrolidine-1-ylmethyl)-1,2,3,4-tetrahydrobenzo[h][1,6]naphthyridine-5(6H)-one dihydrochloride], for which the IC50 at PARP-1 enzyme [1] (dihydrochloride) stood at 60 nM; at PARP-1 enzyme [2], 340 nM.

As to `CCN(C)Cc1ccc2c3c(c(=O)[nH]c2c1)CCCN3` [Example 47, 8-{[Ethyl(methyl)amino]methyl}-1,2,3,4-tetrahydrobenzo[h][1,6]naphthyridine-5(6H)-one dihydrochloride], the IC50 at PARP-1 enzyme [1] is 70 nM; on PARP-1 enzyme [2], 250 nM.

For `CCN(CC)Cc1cc(OC)c2c3c(c(=O)[nH]c2c1)CCCN3` [Example 86, 8-[(Diethylamino)methyl]-10-methoxy-1,2,3,4-tetrahydrobenzo[h][1,6]naphthyridine-5(6H)-one dihydrochloride], the IC50 at PARP-1 enzyme [1] worked out at 110 nM.

`COc1cc(CNC(C)C)cc2[nH]c(=O)c3c(c12)NCCC3` [Example 88, 8-[(Isopropylamino)methyl]-10-methoxy-1,2,3,4-tetrahydrobenzo[h][1,6]naphthyridine-5 (6H)-one dihydrochloride]: the IC50 on PARP-1 enzyme [1] was found to be 110 nM.

Take `COc1cc(CNC2CCCC2)cc2[nH]c(=O)c3c(c12)NCCC3` [Example 89, 8-[(Cyclopentylamino)methyl]-10-methoxy-1,2,3,4-tetrahydrobenzo[h][1,6]naphthyridine-5(6H)-one dihydrochloride]: the IC50 on PARP-1 enzyme [1] turned out to be 270 nM.

In the case of `COc1cc(CN2CC(C)OC(C)C2)cc2[nH]c(=O)c3c(c12)NCCC3` (stereo not shown) [Example 90, 8-[(2,6-Dimethylmorpholino)methyl]-10-methoxy-1,2,3,4-tetrahydrobenzo[h][1,6]naphthyridine-5(6H)-one dihydrochloride], on PARP-1 enzyme [1], the IC50 was determined as 780 nM.

As to `COc1cc(CN(C)C2CCCC2)cc2[nH]c(=O)c3c(c12)NCCC3` [Example 92, 8-{[Cyclopentyl(methyl)amino]methyl}-10-methoxy-1,2,3,4-tetrahydrobenzo[h][1,6]naphthyridine-5(6H)-one dihydrochloride], the IC50 at PARP-1 enzyme [1] came out at 190 nM.

On to `COc1cc(CN(C)C(C)C)cc2[nH]c(=O)c3c(c12)NCCC3` [Example 93, 8-{[Isopropyl(methyl)amino]methyl}-10-methoxy-1,2,3,4-tetrahydrobenzo[h][1,6]naphthyridine-5(6H)-one dihydrochloride], for which, on PARP-1 enzyme [1], the IC50 is 140 nM.

On to `COc1cc(CN(C)CCF)cc2[nH]c(=O)c3c(c12)NCCC3` [Example 94, 8-{[(2-Fluoroethyl)(methyl)amino]methyl}-10-methoxy-1,2,3,4-tetrahydrobenzo[h][1,6]naphthyridine-5(6H)-one dihydrochloride], for which, on PARP-1 enzyme [1], the IC50 is 170 nM.

Take `O=c1[nH]c2cc(Cc3nnn[nH]3)ccc2c2c1CCCN2` [Example 95, 8-[(1H-tetrazole-5-yl)methyl]-1,2,3,4-tetrahydrobenzo[h][1,6]naphthyridine-5(6H)-one hydrochloride]: the IC50 at PARP-1 enzyme [1] worked out at 490 nM.

For `COc1cc(CNN2CCOCC2)cc2[nH]c(=O)c3c(c12)NCCC3` [Example 96, 10-Methoxy-8-[(morpholinoamino)methyl]-1,2,3,4-tetrahydrobenzo[h][1,6]naphthyridine-5(6H)-one trihydrochloride], the IC50 at PARP-1 enzyme [1] came to 770 nM.

Regarding `COc1cc(CN(C)N2CCOCC2)cc2[nH]c(=O)c3c(c12)NCCC3` [Example 97, 10-Methoxy-8-{[methyl(morpholino)amino]methyl}-1,2,3,4-tetrahydrobenzo[h][1,6]naphthyridine-5(6H)-one trihydrochloride], on PARP-1 enzyme [1], the half-maximal inhibitory concentration (IC50) was 900 nM.

Regarding `CCOc1cc(CN(C)C)cc2[nH]c(=O)c3c(c12)NCCC3` [Example 100, 8-[(Dimethylamino)methyl]-10-etoxy-1,2,3,4-tetrahydrobenzo[h][1,6]naphthyridine-5(6H)-one dihydrochloride], on PARP-1 enzyme [2], the IC50 came to 60 nM.

Consider `CCOc1cc(CN2CCCCC2)cc2[nH]c(=O)c3c(c12)NCCC3` [Example 102, 10-Ethoxy-8-(piperidine-1-ylmethyl)-1,2,3,4-tetrahydrobenzo[h][1,6]naphthyridine-5(6H)-one dihydrochloride], for which, on PARP-1 enzyme [1], the IC50 is 180 nM.

Consider `COc1cc(CO)cc2[nH]c(=O)c3c(c12)NCCC3` [Example 105, 8-(Hydroxymethyl)-10-methoxy-1,2,3,4-tetrahydrobenzo[h][1,6]naphthyridine-5(6H)-one hydrochloride], for which the IC50 on PARP-1 enzyme [1] (setting [3]) was 190 nM.

`COc1cc(CNCCN2CCOCC2)cc2[nH]c(=O)c3c(c12)NCCC3` [Example 107, 10-Methoxy-8-[(2-morpholinoethylamino)methyl)-1,2,3,4-tetrahydrobenzo[h][1,6]naphthyridine-5(6H)-one trihydrochloride]: at PARP-1 enzyme [1], the IC50 amounted to 70 nM.

For `NCc1ccc2c3c(c(=O)[nH]c2c1)CCCN3` [Example 112, 8-(Aminomethyl)-1,2,3,4-tetrahydrobenzo[h][1,6]naphthyridine-5 (6H)-one dihydrochloride], the concentration for half-maximal inhibition (IC50) at PARP-1 enzyme [1] worked out at 170 nM.

In the case of `COc1cc(CN(C)C2CCOCC2)cc2[nH]c(=O)c3c(c12)NCCC3` [Example 115, 10-Methoxy-8-{[methyl(tetrahydro-2H-pyran-4-yl)amino]methyl}-1,2,3,4-tetrahydrobenzo[h][1,6]naphthyridine-5(6H)-one dihydrochloride], the IC50 at PARP-1 enzyme [1] came to 410 nM.

On to `COCCOc1cc(CN(C)C)cc2[nH]c(=O)c3c(c12)NCCC3` [Example 116, 8-[(Dimethylamino)methyl]-10-(2-methoxyetoxy)-1,2,3,4-tetrahydrobenzo[h][1,6]naphthyridine-5(6H)-one dihydrochloride], for which, on PARP-1 enzyme [1] (setting [3]), the IC50 is 180 nM.
